From publication PMC9997437, “Initiation and modulation of Tau protein phase separation by the drug suramin” (Scientific Reports, 2023) come the findings set out here.

Each structure is given as a SMILES string. pKd: −log10 of the molar value.

This experiment concerns the target T1, Tau (Homo sapiens, UniProt P10636).
T1 construct: gene MAPT; full-length wildtype Tau (hTau40; 441 aa; 2N4R isoform, UniprotKB P10636-8)
Put plainly: microscale thermophoresis (MST) with fluorescently labelled Tau; supported by trDLS, microscopy and TEM of Tau:suramin condensates. Type of experiment: binding. (MST reads how a fluorescent partner responds to local heating, with and without ligand.)

T1 sequence (P10636 2-441 isoform P10636-8): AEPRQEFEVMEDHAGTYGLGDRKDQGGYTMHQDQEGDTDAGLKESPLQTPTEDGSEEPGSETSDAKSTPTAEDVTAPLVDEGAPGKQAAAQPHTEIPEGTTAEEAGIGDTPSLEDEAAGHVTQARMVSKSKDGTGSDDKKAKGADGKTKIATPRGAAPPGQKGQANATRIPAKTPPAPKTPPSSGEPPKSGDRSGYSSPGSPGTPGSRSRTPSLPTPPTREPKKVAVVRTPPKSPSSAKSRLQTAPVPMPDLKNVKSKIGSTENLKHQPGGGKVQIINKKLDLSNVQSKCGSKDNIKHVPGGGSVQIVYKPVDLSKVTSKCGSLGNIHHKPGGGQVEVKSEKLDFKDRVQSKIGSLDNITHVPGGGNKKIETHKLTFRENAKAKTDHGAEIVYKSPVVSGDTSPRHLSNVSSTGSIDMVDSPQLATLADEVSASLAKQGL

Broadly, the pKd is the negative decadic logarithm of the Kd, by convention in mol/L. As for `Cc1ccc(C(=O)Nc2ccc(S(=O)(=O)O)c3cc(S(=O)(=O)O)cc(S(=O)(=O)O)c23)cc1NC(=O)c1cccc(NC(=O)Nc2cccc(C(=O)Nc3cc(C(=O)Nc4ccc(S(=O)(=O)O)c5cc(S(=O)(=O)O)cc(S(=O)(=O)O)c45)ccc3C)c2)c1` [suramin], the negative-log Kd (pKd) is ~4.77.
